Test results: article PMC7157241, “Phenotypic Drug Discovery for Human African Trypanosomiasis: A Powerful Approach” (Tropical Medicine and Infectious Disease, 2020)
Read-outs that look alike come from different tables or passages of the source. Marks after values point to notes of the source that are not given here. One block for each compound: values may come before it.

What was measured:
[1] = Brain permeability studies in mice (brain to plasma ratio); assay type: in vivo, mouse; settings: for Kp at 60 min / Kp at 1 h: mouse, 5 mg/kg; for Kp at 60 min: read-out: B/P Ratio (Mouse)
Description: Test compounds were injected (ip) at 5 mg/kg to three mice in a vehicle consisting of DMSO (5%), Tween 80 (7%), and EtOH (3%) in physiological saline (0.9%) solution [8]. At 1 h post injection, blood was collected, and plasma was separated by centrifugation. Simultaneously, the brain was removed and homogenized in acetonitrile. Concentrations of compound in the plasma and brain were determined via liquid chromatography/tandem mass spectrometry. Calculations of brain levels accounted for 3% volume/weight of blood in the brain.
The long-term goal of the project was to develop a drug for treatment of HAT including late-stage disease involving the central nervous system. […] To assess this, the sixteen hit compounds were injected […] and mice were sacrificed at 60 min (n = 3 mice) for the simultaneous collection of plasma and whole brains for the quantification of compound concentrations. Eleven compounds (1–10, 12) had brain levels of at least 25% of plasma levels and were considered candidates for development. One compound (11) had modest brain permeability of 9%, but was included for further chemistry despite this marginal activity. Four compounds (13–15, 17) had minimal concentrations in the brain (< 2% of plasma levels) and were no longer pursued.

[2] = Mammalian cell cytotoxicity assay (AlamarBlue, 48 h); assay type: cell-based; settings: human
Description: Compounds were tested for cytotoxicity against CRL-8155 cells (human lymphoblasts). Cells were grown in culture with serial dilutions of compounds for 48 h and cytotoxicity was assayed using AlamarBlue (Life Technologies, Carlsbad, California CA, USA).

[3] = tested on: T. brucei brucei (strain BF427); assay: In vitro parasite growth arrest assay (AlamarBlue); assay type: cell-based, Trypanosoma brucei brucei
Description: Follow up compounds were tested for antiparasitic activity on T. brucei brucei (strain BF427). Parasites were tested in triplicate in the presence of serial dilutions of compound, and growth was quantified with AlamarBlue.

[4] = Mouse liver microsome stability; settings: for half-life: mouse, liver microsomes
[5] = tested on: T. b. brucei (strain TREU667); design: method as in PMID 27992217; settings: cited from earlier work
[6] = Brain permeability studies in mice (brain to plasma ratio); assay type: in vivo; settings: mouse, 5 mg/kg
[7] = Single dose oral pharmacokinetic study in mice; assay type: in vivo; settings: mouse, oral gavage 50 mg/kg
Description: Test compounds were administered to mice by oral gavage followed by blood sampling at intervals of 30, 60, 120, 240, 360, 480, and 1440 min [5, 7]. Compounds were dosed orally at 50 mg/kg in 0.2 mL of dosing solution (7% Tween 80, 3% ethanol, 5% DMSO, 0.9% saline). Experiments were performed with groups of three mice per compound as published. Plasma was separated and extracted with acetonitrile for measurements of the compound concentrations by liquid chromatography/tandem mass spectrometry.
New compounds had T. brucei EC50, mammalian host cell cytotoxicity (CC50), and aqueous solubility assayed per our screening cascade (Figure 2). The cut-off values for further advancement are shown. […] The screening results were continuously reviewed by the chemistry group to define structure activity relationships (SAR). […] Mice were administered compounds by oral gavage at 50 mg/kg and whole blood samples were collected on blotting cards at serial time points. The parameters of maximum blood concentration (Cmax) and the concentration of compound integrated over time (area under curve, AUC) were of primary interest. The general rule was to attain plasma concentrations 10 times above the T. brucei EC50 value for at least eight hours. […]

[8] = design: method as in PMID 28835807; settings: data are for close analog of Scaffold 9 parent (parent had poor ionization in MS); 60 min following IP dose; cited from earlier work
[9] = Human microsome stability; assay type: in vitro ADME; settings: microsomes, Figure 3, read-out: Human microsome t½
[10] = microsomes
[11] = tested on: T. b. brucei (strain TREU667); assay: Anti-parasite efficacy in mice (chronic model); assay type: in vivo, mouse; settings: chronic infection model (unpublished)
Description: Groups of six to eight mice were infected with 1 × 10^4 T. b. brucei (strain TREU667) to establish a chronic infection. Treatment began on day 21 post-infection, and mice received 50 mg/kg test compound orally twice per day for 10 days (total of 20 doses) in a 200 μL volume of vehicle. A control group received the vehicle with no compound and another control group received a single intraperitoneal dose of diminazene aceturate at 10 mg/kg on day 21. […] After dosing, parasitemia was monitored via microscopic examination of tail blood slides until 180 days post-infection. Mice were removed from the experiment when parasites were detected in the blood.

[12] = tested on: T. brucei rhodesiense STIB 900 strain; settings: acute infection model; cited from earlier work
[13] = brain and plasma, brain to plasma ratio at 60 min following IP dose
[14] = CRL-8155 cells (lymphoblasts), lymphocytic cell line CRL-8155, read-out: Mammalian CC50
[15] = Trypanosoma brucei, selected hit compounds, Table 1, read-out: T. brucei EC50
[16] = CRL-8155 cells (lymphoblasts), Figure 3, Scaffold 1 optimization, read-out: CC50
[17] = Trypanosoma brucei, Figure 3, Scaffold 1 optimization, read-out: T. brucei EC50
[18] = in vivo, Figures 4 and 5, read-out: Brain:Plasma ratio
[19] = Trypanosoma brucei, Figures 4 and 5, read-out: T. brucei EC50
[20] = brain and plasma, intraperitoneal, Figure 3, read-out: Brain:Plasma
[21] = in vivo, brain to plasma ratio at 60 min following IP dose
[22] = lymphocytic cell line CRL-8155, read-out: Mammalian CC50

Structure (SMILES): Cc1cc(C)c(NC(=O)c2cc(S(=O)(=O)N3CCOCC3)cn2C)c(C)c1 [Scaffold 13]
Kp at 60 min [1, 13]: 0.02 | CC50 at 48 h [2, 14]: > 100000 nM | EC50 [3, 15]: 1000 nM

Structure (SMILES): N=C(N)c1ccc(OCCCCCOc2ccc(C(=N)N)cc2)cc1 [Pentamidine isothionate, reference compound]
EC50 ([3]; positive control included in each assay, read-out: EC50 of positive control): 1.2 ± 0.3 nM

Structure (SMILES): O=C(Nc1ccc2sc(-c3ccc(F)c(F)c3)nc2c1)N1CC[C@H](F)C1 [Scaffold 45DAP076]
activity in the chronic T. brucei infection model [5]: curative activity | Kp at 1 h [1, 18]: 4 | EC50 [3, 19]: 35 nM | half-life [4]: > 3600 s

Structure (SMILES): O=c1nc(/C=C/c2cn(Cc3ccccc3F)c3ccccc23)cc(C(F)(F)F)[nH]1 [Scaffold 11]
Kp at 60 min ([6]; brain and plasma, intraperitoneal, mice sacrificed at 60 min, n = 3, read-out: brain levels as percent of plasma levels): 0.09 | Kp at 60 min [1, 13]: 0.09 | EC50 [3, 15]: 3090 nM

Structure (SMILES): Cc1nn2c(NCCCO)c3c(nc2c1-c1cccs1)CCC3 [Scaffold 6]
Kp at 60 min [1, 13]: 0.727 | CC50 at 48 h [2, 14]: > 100000 nM | EC50 [3, 15]: 307 nM

Structure (SMILES): O=C(Nc1ccc(Cl)c(-c2nc3ncccc3o2)c1)N1CCCC1 [Site II: pyrrolidine]
CC50 at 48 h [2, 16]: 73000 nM | EC50 [3, 17]: 80 nM | half-life [4]: 48 s

Structure (SMILES): COc1ccc(CNC(=O)CN(c2cccc(C)c2C)S(=O)(=O)c2ccccc2)cc1 [Scaffold 12]
Kp at 60 min [1, 13]: 0.267 | CC50 at 48 h [2, 14]: > 100000 nM | EC50 [3, 15]: 1700 nM

Structure (SMILES): O=C(CSc1nc2scc(-c3ccccc3)c2c(=O)n1-c1ccccc1)Nc1ccccc1F [Scaffold 16]
plasma and brain levels ([1]; 60-min time point): nearly undetectable plasma and brain levels | B/P Ratio (Mouse) ([1]; brain to plasma ratio at 60 min following IP dose): No plasma exposure | CC50 at 48 h [2, 14]: > 100000 nM | EC50 [3, 15]: 650 nM

Structure (SMILES): COc1ccc(N2C(=O)CN(Cc3ccccc3)C2=S)cc1Cl [Scaffold 9]
CC50 at 48 h [2, 14]: > 50000 nM | EC50 [3, 15]: 346 nM | B/P Ratio (Mouse) [8]: 0.743 ***

Structure (SMILES): O=C(c1ccco1)N(C(=O)c1ccco1)c1ccc(Cl)c(-c2nc3ncccc3o2)c1 [Site V: as shown]
CC50 at 48 h [2, 16]: 86000 nM | EC50 [3, 17]: 100 nM | half-life [4]: 42 s

Structure (SMILES): O=C(NCCc1nc(-c2ccccc2)cs1)c1ccccc1 [Scaffold 2]
Kp at 1 h [1, 18]: 0.3 | Kp at 60 min [1, 21]: 0.3 | CC50 at 48 h [2, 22]: > 50000 nM

Structure (SMILES): COCCN1C(=O)c2ccccc2C(C(=O)Nc2ccc(Oc3ccccc3)cc2)C1c1ccc(F)cc1 (stereo not shown) [Scaffold 14]
Kp at 60 min [1, 13]: 0.01 | CC50 at 48 h [2, 14]: > 100000 nM | EC50 [3, 15]: 708 nM

Structure (SMILES): O=C(Nc1ccc(Cl)c(-c2nc3ncccc3o2)c1)c1ccco1 [Scaffold 1]
Mouse microsome t½ [10]: 48 s | Kp at 60 min [1, 21]: 0.547 | CC50 at 48 h ([2]; Figure 3, Scaffold 1 optimization, read-out: CC50): 50000 nM | CC50 at 48 h [2, 22]: > 50000 nM | EC50 [3, 17]: 220 nM | EC50 [3, 15]: 218 nM

Structure (SMILES): COc1cccc(C2N(c3ccccc3)N=C(C(C)=O)N2c2ccc(C)c(C)c2)c1OCc1ccccc1 (stereo not shown) [Scaffold 15]
Kp at 60 min [1, 13]: 0 | CC50 at 48 h [2, 14]: 33000 nM | EC50 [3, 15]: 1500 nM

Structure (SMILES): O=C(Nc1ccc(F)c(-c2nc3ncccc3o2)c1)c1ccco1 [Site I: F]
CC50 at 48 h [2, 16]: 99700 nM | EC50 [3, 17]: 80 nM | half-life [4]: 42 s

Structure (SMILES): Fc1ccccc1C1C=C(c2cccnc2)Nc2nnnn21 (stereo not shown) [Scaffold 8]
Kp at 15 min ([6]; in vivo, brain to plasma ratio at 15 min following IP dose (Scaffold 8), read-out: B/P Ratio (Mouse)): 7.11 | CC50 at 48 h [2]: 14300 nM | EC50 [3, 15]: 214 nM

Structure (SMILES): COc1cc(N2C(=O)CN(Cc3ccc(F)cc3Cl)C2=S)ccc1N(C)C [BA-738]
Kp at 1 h ([1]; brain and plasma, intraperitoneal, Figures 4 and 5, read-out: Brain:Plasma ratio): 1.68 | CC50 at 48 h ([2]; CRL-8155 cells (lymphoblasts), Figure 5, read-out: Mammalian cell CC50): > 50000 nM | cures in the chronic infection model [11]: 20 % of mice | EC50 [3, 19]: 1.9 nM | outcome in acute T. brucei infection in mice [12]: cured mice | Mouse liver microsome t½ ([4]; Figures 4 and 5): 660 s

Now from value to compound, other results behind:

EC50 [3, 17]: 50 nM | half-life [4]: 48 s
Structure (SMILES): O=C(Nc1ccc(Cl)c(-c2nc3cc(Br)cnc3[nH]2)c1)c1ccco1 [Site III: as shown]
CC50 at 48 h [2, 16]: 200000 nM

Kp at 60 min [1, 13]: 2.86 | EC50 [3, 15]: 874 nM
Structure (SMILES): O=c1c2ccccc2nc(SCc2cccnc2)n1Cc1ccco1 [Scaffold 3]
CC50 at 48 h [2, 14]: 38000 nM

Kp at 1 h [1, 20]: 0.04 | AUC [7]: 1236 µmol·min | EC50 [3, 17]: 4 nM
Structure (SMILES): O=C(Nc1ccc(F)c(-c2nc3cc(-c4ccccc4)cnc3[nH]2)c1)N1CCCC1 [HB-175]

Kp at 60 min [1, 13]: 0 | EC50 [3, 15]: 3500 nM
Structure (SMILES): COc1ccc(-c2c(C#N)c(SCc3ccccc3)nc(C)c2C(=O)Nc2ccccc2)cc1 [Scaffold 17]
CC50 at 48 h [2, 14]: > 100000 nM

Kp at 60 min [1, 13]: 0.224 | EC50 [3, 15]: 2440 nM
Structure (SMILES): CCn1cc(CN2CCCC(C(=O)Nc3ccc(-c4nc5ccccc5[nH]4)cc3)C2)cn1 (stereo not shown) [Scaffold 10]

Kp at 60 min [1, 13]: 0.587 | EC50 [3, 15]: 657 nM
Structure (SMILES): COc1ccc(-n2nc(C(=O)NCC(=O)N3CCCC(C)C3)c3ccccc3c2=O)cc1Cl (stereo not shown) [Scaffold 7]
CC50 at 48 h [2, 14]: > 50000 nM

half-life [9]: > 1.5 h | Kp at 1 h [1, 20]: 0.23 | AUC [7]: 55901 µmol·min | half-life [4]: > 5400 s
Structure (SMILES): Cc1nc(C)c(C(=O)Nc2ccc(F)c(-c3nc4ncc(-c5ccccc5Cl)cn4n3)c2)o1 [PN-302]
CC50 at 48 h [2, 16]: > 50000 nM
